These results are taken from patent publication US8377455B2, “Biosurfactant composition produced by a new Bacillus licheniforms strain, uses and products thereof” (priority 2008, dated 2013).

In assay [1] the test system is planktonic E. coli CFT073. The experiment in a line: Susceptibility of planktonic cultures to antibiotics with or without V9T14 (MIC by OD650, MBC by viable cell count). It is filed as cell-based, Escherichia coli. The conditions noted are these: for change of MBC99.99% by V9T14 / effect of V9T14 on planktonic killing: 5 μg/mL V9T14; for MIC / MBC: Escherichia coli; for MBC: read-out: MBC99.99%, Ab; for concentration at which complete eradication of planktonic cells was observed: antibiotic plus 5 μg/mL V9T14; for MBC99.99%, AbBs: antibiotic plus 5 μg/mL V9T14 biosurfactant; for increase of planktonic killing by V9T14: at 2 μg/mL antibiotic. Here is the method: (§1) Antibiotics were serially diluted (log2) using 0.9% saline in a 96-well microtiter plate, and then a solution of biosurfactant was added to each well to reach a final concentration of 5 μg/mL.
(§2) E. coli CFT073 biofilms were grown on the CBD at 37° C. for 24 h in a rotatory shaker at 130 rpm, as described above. Then CBD lid was rinsed twice with 0.9% saline, exposed to the antibiotics and antibiotic plus biosurfactant microtiter plate and incubated at 37° C., 125 rpm for 24 h. After exposure, the CBD was removed and the 96-well microtiter plate was used to estimate minimal inhibitory concentration (MIC) and minimal bactericidal concentration (MBC99.99%) values. For MIC value, the plate was read using a spectrophotometer at 650 nm, MIC was defined as the lowest concentration not presenting turbidity; according to the guidelines of the American Clinical Laboratory Standards Institute, the minimum bactericidal concentration (MBC) is conventionally defined as a concentration of an antimicrobial agent that kills 3 log10 cells of a bacterial culture (or 99.9% of the bacteria). In our experiments we used a more restrictive criterion, defining the MBC99.99% value, defined as the lowest concentration of the antibiotic activity higher than 4 log10 by viable cell count. Minimal biofilm eradication concentration (MBEC99.9%) was defined as the lowest concentration to eradicate 3 log10 of the viable microorganisms in a biofilm.
(§3) The difference attributed to synergy is expressed in Δ values between the log10 antibiotic cell count reduction and the log10 association value. “Eradication” was defined as no growth in antibiotic-free plates after planktonic culture initially incubated in antibiotic-containing LB broth.

A further assay relates to E. coli CFT073 biofilm. Description: Susceptibility of 24 h biofilm on CBD to antibiotics with or without V9T14 (MBEC, viable cell count, CLSM). It is filed as cell-based, Escherichia coli. The conditions noted are these: for MBEC99.9%, Ab: 3 log10 reduction; for MBEC99.9%, AbBs: antibiotic plus 5 μg/mL V9T14 biosurfactant. Here is the method:
as §1, §2
Pegs were broken from the lid of the CBD using pliers (Harrison et al. 2006) and then rinsed once with 0.9% saline to remove planktonic forms. Prior to examination by CLSM, biofilms were fluorescently stained with acridine orange (AO) (Sigma Chemical Co., St. Louis, Mo., USA). To stain biofilms, pegs were immersed in 0.1% w/v AO in PBS for 5 min at room temperature in the dark. To determine live and dead cell distribution in antibiotic experiments, rinsed biofilms were stained with Syto-9 (6.7 μM) and propidium iodide (40 μM) (Live/Dead® BacLight™ Kit, Molecular Probes, Burlington, ON, Canada) at 30° C. for 30 min. Fluorescently stained biofilms were placed in two drops of 0.9% saline on the surface of a glass coverslip. These pegs were examined using a Leica DM IRE2 spectral confocal and multiphoton microscope with a Leica TCS SP2 acoustic optical beam splitter (AOBS) (Leica Microsystems, Richmond Hill, ON, Canada). To minimize or eliminate artefacts associated with single and/or simultaneous dual wavelength excitation, all dual labelled samples were sequentially scanned, frame-by frame, first at 476 or 488 nm and then at 543 nm. Fluorescence emission Δ was then sequentially collected in the green and red regions of the spectrum, respectively. Line averaging (×2) was used to capture images with reduced noise. A 63× water immersion objective was used in all imaging experiments. Image capture and two dimensional projections of z-stacks were performed using Leica Confocal Software (LCS, Leica Microsystems).
as §3

Setting [2] is: 24 h, antibiotic alone, 24 h, OD650, read-out: MIC, Ab.
Setting [3] is: antibiotic without V9T14 (figure legend), read-out: MIC value used in FIG. 21.
The mark [4] stands for this setting: antibiotic alone, 24 h, 4 log10 reduction.

Like-named read-outs stand apart in the source and are kept apart here.

One may read the MIC as the least concentration at which growth counts as inhibited. Turning to `CC1(C)S[C@@H]2[C@H](NC(=O)[C@H](N)c3ccccc3)C(=O)N2[C@H]1C(=O)O` [Ampicillin, ampicillin], in assay [1], the “change of MBC99.99% by V9T14” value was “not modified” and the “concentration at which complete eradication of planktonic cells was observed” value (“concentration … of planktonic cells was observed” for short) turned out to be 8 µg/mL. Besides, the MIC in assay [1] (setting [2]) fell in the range of 2 to 4 µg/mL. Moreover, in assay [1] (setting [3]), the MIC turned out to be 2 µg/mL. Besides, the MBC in assay [1] (setting [4]) is 1 to 2 µg/mL. Besides, in assay [1] (antibiotic alone up to 16 μg/mL), the surviving planktonic population is given as 10^2 cfu/mL. Further, in assay [1] (24 h), the “MBC99.99%, AbBs” value fell in the range of 1 to 2 µg/mL. In assay [1] (concentration not given), the “increase of planktonic killing efficacy by V9T14” value came to 2 log10. For the same compound, the surviving biofilm population with E. coli CFT073 biofilm (1 μg/mL antibiotic plus V9T14) is reported as 10^1 cfu/peg. The biofilm reduction in the assay with E. coli CFT073 biofilm (antibiotic alone at 4 μg/mL) stood at 3 log10. In the assay on E. coli CFT073 biofilm (antibiotic alone, 24 h), the “biofilm subpopulation remaining viable” value is listed as 10^3 cfu/peg and the “MBEC99.9%, Ab” value was found to be 4 µg/mL. In addition, the “MBEC99.9%, AbBs” value in the assay with E. coli CFT073 biofilm (24 h) fell in the range of 0.5 to 1 µg/mL. In the assay with E. coli CFT073 biofilm (antibiotic plus V9T14), the “concentration at which sessile forms were eradicated” value came to 8 µg/mL. In the assay with E. coli CFT073 biofilm (association of V9T14 with the antibiotic), the “effect on adherent biofilm cells” value was “complete eradication”. Moreover, in the assay on E. coli CFT073 biofilm (at 1 μg/mL antibiotic), the “enhancement of antibiotic effect on biofilm by V9T14” value was found to be 4 log10.

With `Cc1nnc(SCC2=C(C(=O)O)N3C(=O)[C@@H](NC(=O)Cn4cnnn4)[C@H]3SC2)s1` [Cefazolin, cefazolin], the “maximum planktonic killing effect” value in assay [1] (32 μg/mL antibiotic plus V9T14) was 8.4 log10; in assay [1] (antibiotic alone at 32 μg/mL), 6.9 log10. In addition, the MIC is 8 µg/mL in assay [1] (24 h, antibiotic plus 5 μg/mL V9T14, 24 h, OD650, read-out: MIC with V9T14) and 8 µg/mL in assay [1] (setting [3]). The MBC in assay [1] (setting [4]) is 16 µg/mL. For the same compound, the planktonic killing entry in assay [1] (antibiotic alone at 16 μg/mL) was “more than 4 log10 cfu/mL”. Also, the “MIC, Ab” value is 1 to 2 µg/mL in assay [1] (antibiotic alone, 24 h, OD650) and 16 µg/mL in assay [1] (antibiotic alone, 24 h, OD650, listed as cefazolin). In addition, in assay [1], the “concentration … of planktonic cells was observed” value was determined as 32 µg/mL. In assay [1] (24 h), the “MBC99.99%, AbBs” value is 8 µg/mL. For the same compound, the biofilm reduction entry with E. coli CFT073 biofilm (antibiotic alone, up to highest concentration tested) was “about 2.2 log10”. Besides, the “MBEC99.9%, AbBs” value in the assay on E. coli CFT073 biofilm (24 h) amounted to 8 µg/mL.

Regarding `CO/N=C(\C(=O)N[C@@H]1C(=O)N2C(C(=O)O)=C(CSc3nc(=O)c(O)nn3C)CS[C@H]12)c1csc(N)n1` [Cefriaxone, ceftriaxone], in assay [1], the “change of MBC99.99% by V9T14” value is listed as “not modified”, the “concentration … of planktonic cells was observed” value was 2 µg/mL and the “increase of planktonic killing by V9T14” value stood at 1.7 log10. Further, the planktonic population reduction in assay [1] (antibiotic alone at 0.5 μg/mL) was found to be 3 log10. Also, the planktonic population reduction in assay [1] (antibiotic alone at 1 μg/mL) worked out at 7 log10. Moreover, in assay [1] (setting [4]), the “MBC99.99%, Ab” value was in the range of 0.5 to 1 µg/mL. Besides, the “MIC, Ab” value in assay [1] (antibiotic alone, 24 h, OD650) is 1 to 2 µg/mL. Further, in assay [1] (24 h), the “MBC99.99%, AbBs” value fell in the range of 0.5 to 1 µg/mL. Moreover, the “MIC value used in FIG. 21” value in assay [1] (antibiotic without V9T14 (figure legend)) amounted to 1 µg/mL. In addition, the “final enhancement of biofilm removal by V9T14” value in the assay with E. coli CFT073 biofilm (2 μg/mL antibiotic) is 1.2 log10. Moreover, in the assay with E. coli CFT073 biofilm (0.25-0.5 μg/mL antibiotic), the “enhancement of biofilm removal by V9T14” value came to 0.6 log10. In addition, the biofilm reduction in the assay on E. coli CFT073 biofilm (antibiotic alone at 1 μg/mL) is given as 3 log10. Also, the “MBEC99.9%, Ab” value in the assay on E. coli CFT073 biofilm (antibiotic alone, 24 h) was in the range of 1 to 2 µg/mL. Besides, the “MBEC99.9%, AbBs” value with E. coli CFT073 biofilm (24 h) fell in the range of 0.5 to 1 µg/mL. Besides, in the assay on E. coli CFT073 biofilm (for 2 μg/mL antibiotic, on top of the 0.25-0.5 μg/mL increase), the “further increase of biofilm removal by V9T14” value was 0.6 log10.

In the case of `O=C(O)c1cn(C2CC2)c2cc(N3CCNCC3)c(F)cc2c1=O` [Ciprofloxacin, ciprofloxacin], in assay [1], the “change of MBC99.99% by V9T14” value is “not modified” and the “increase of planktonic killing by V9T14” value is given as 1.4 log10. In addition, in assay [1] (setting [2]), the MIC was 8 to 16 µg/mL. For the same compound, in assay [1] (setting [4]), the MBC fell in the range of 0.25 to 0.5 µg/mL. Further, in assay [1] (antibiotic alone at 1 μg/mL), the planktonic population reduction is recorded as 6.8 log10. Moreover, the “MBC99.99%, AbBs” value in assay [1] (24 h) lay in the range of 0.25 to 0.5 µg/mL.

Consider `CCN1CCN(C(=O)N[C@@H](C(=O)N[C@@H]2C(=O)N3[C@@H]2SC(C)(C)[C@@H]3C(=O)O)c2ccccc2)C(=O)C1=O` [Piperacillin, piperacillin], for which, in assay [1], the “change of MBC99.99% by V9T14” value is reported as “not affected” and the “effect of V9T14 on planktonic killing” value is on record as “no improvement”. For the same compound, the MIC in assay [1] (setting [2]) was > 32 µg/mL. Moreover, the MIC in assay [1] (setting [3]) is 32 µg/mL. In assay [1] (setting [4]), the MBC was > 32 µg/mL. For the same compound, in assay [1] (antibiotic alone at 4 μg/mL), the planktonic population reduction is 2.7 log10. The “MBC99.99%, AbBs” value in assay [1] (24 h) was >32 µg/mL. Also, in the assay with E. coli CFT073 biofilm (5 μg/mL V9T14), the “change of MBEC99.9% by V9T14” value is given as “not affected” and the “effect of V9T14 on biofilm killing” value was “no improvement”. The “synergy with V9T14 (criterion ≧1 log10 decrease)” value in the assay with E. coli CFT073 biofilm (24 h exposure) is “not able to satisfy our discrimination criterion for synergy identification”. In addition, in the assay with E. coli CFT073 biofilm (antibiotic alone at 4 μg/mL), the biofilm reduction amounted to 1 log10. Further, the “MBEC99.9%, Ab” value in the assay on E. coli CFT073 biofilm (antibiotic alone, 24 h) was >32 µg/mL. In the assay on E. coli CFT073 biofilm (24 h), the “MBEC99.9%, AbBs” value was >32 µg/mL.

As to `NC[C@H]1O[C@H](O[C@H]2[C@H](O)[C@@H](O[C@H]3O[C@H](CO)[C@@H](O)[C@H](N)[C@H]3O)[C@H](N)C[C@@H]2N)[C@H](N)C[C@@H]1O` [Tobramycin, tobramycin], the figures for the “planktonic growth, OD650” value in assay [1] (4 μg/mL antibiotic alone) and in assay [1] (4 μg/mL antibiotic plus 5 μg/mL V9T14) were 0.31 and 0.18, respectively. Besides, in assay [1], the “change of MBC99.99% by V9T14” value is recorded as “not modified”. Also, in assay [1], the “effect of V9T14 on planktonic killing” value is listed as “no increase of activity”. In addition, the minimal inhibitory concentration (MIC) in assay [1] (setting [2]) was 16 to 32 µg/mL; in assay [1] (setting [3]), 16 µg/mL. Besides, the MBC in assay [1] (setting [4]) fell in the range of 8 to 16 µg/mL. Besides, the “concentration giving complete eradication of planktonic population” value in assay [1] (antibiotic alone) worked out at 16 µg/mL. Also, the planktonic population reduction in assay [1] (antibiotic alone up to 8 μg/mL) worked out at 1 log10. The “MBC99.99%, AbBs” value in assay [1] (24 h) lay in the range of 8 to 16 µg/mL. The “change of MBEC99.9% by V9T14” value with E. coli CFT073 biofilm (5 μg/mL V9T14) is on record as “not modified”. Further, the “increased efficacy against sessile forms by V9T14” value with E. coli CFT073 biofilm (16 μg/mL antibiotic) was found to be 1 log10. Further, the “effect on mature biofilm by CLSM (Live/Dead)” value in the assay with E. coli CFT073 biofilm (16 μg/mL antibiotic alone) was “significant killing of biofilm population”. For the same compound, in the assay on E. coli CFT073 biofilm (16 μg/mL antibiotic plus 5 μg/mL V9T14), the “mature biofilm reduction by CLSM (Live/Dead)” value was “further increased”. Also, the biofilm survival subpopulation result with E. coli CFT073 biofilm (antibiotic alone at 8-16 μg/mL) was “about 10^2 cfu/mL”. The “MBEC99.9%, Ab” value in the assay with E. coli CFT073 biofilm (antibiotic alone, 24 h) lay in the range of 2 to 4 µg/mL. Besides, in the assay with E. coli CFT073 biofilm (antibiotic alone, stabilizing at 8-16 μg/mL), the biofilm decrease is listed as 4 log10. Moreover, in the assay with E. coli CFT073 biofilm (24 h), the “MBEC99.9%, AbBs” value is 2 to 4 µg/mL.
